pKi: −log10 of the molar value. “Also recorded” adds a separate entry of the source. Where a name gives a salt, the structure may show the parent alone. Read-outs that look alike come from different tables or passages of the source. Where only a bound is given, the exact number is not on record here.

For one series, the system named is mice (forced swim test). The series can be described thus: Forced swim test in mice, 30-minute pre-treatment. The class given is in vivo, Swiss Webster mice. To be noted: s.c., 30 minutes before test, relative to vehicle. As to the method: Animals. Male Swiss Webster mice, aged 4-5 weeks (body weight 25-30 g, Envigo) were used in the experiments Animals were housed in groups of 4-5 under controlled temperatures and 12-hour light/dark cycles, with ad libitum food (Teklad 7001 rodent diet) and water. These studies were carried out in strict accordance with the recommendations in the Guide for the Care and Use of Laboratory Animals of the National Institutes of Health. All efforts were made to minimize suffering.
Drugs and Drug Administration. Imipramine hydrochloride was administered intraperitoneally (i.p.) at a dose of 30 mg/kg. Other compounds were tested as the racemates (indicated by “rac” nomenclature) and were administered subcutaneously (s.c.) as the hydrochloride salts. Normal saline was used as the vehicle and all compounds were administered at a volume of 10 mL/kg, 30 minutes before behavioral testing.
Forced Swim Test (FST). Group size was n=10 per treatment Animals were acclimated to the testing room 30 minutes prior to behavioral testing. Mice were placed individually in a cylinder of water measuring 5 inches wide by 10 inches tall and maintained at 24-25° C. The activity of each mouse was recorded for 6 minutes using Noldus Ethovision tracking software, with periods of inactivity being automatically quantified.
Statistical Analysis. The data points shown are the mean±standard error of the mean (SEM). Analysis was performed using GraphPad Prism 6. Indicated statistical comparisons represent the results of unpaired, two-tailed t tests relative to vehicle (not corrected for multiple comparisons).

Series [1] in a line: Oral bioavailability in mice, Method A. The class given is in vivo. To be noted: CD-1 mice; for F: 10 mg/kg; for half-life / Cmax / AUC(0-inf): male, mouse. As to the method:
Animals. Male CD-1 mice were used in these studies Animals were randomly assigned to treatment groups and were fasted for 4 h before dosing.
Drugs. Test compounds were dissolved in normal saline (ketamine) or de-ionized water (other compounds) and administered intravenously (iv) or orally (po) at a dose of 10 mg/kg (calculated based on freebase) and at a volume of 5 mL/kg body weight. Compounds were tested as the racemates (indicated by “rac” nomenclature) or pure enantiomers (indicated by “R” or “S” nomenclature).
Sample Collection and Bioanalysis. Blood samples were collected under 2,2,2-tribromoethanol anesthesia (150 mg/kg, ip) from the orbital sinus at 0.083, 0.25, 0.5, 1, 2, 4, 8 and 24 h (4 animals per time point) into microcontainers containing K2EDTA Immediately after collection of blood, mice were euthanized by cervical dislocation and brain samples were collected at the same time points. All samples were immediately processed, flash-frozen, and stored at −70° C. until subsequent analysis. Plasma samples were separated by centrifugation of whole blood and aliquots (50 μL) were mixed with 200 μL of internal standard solution (400 ng/mL in 1:1 v/v CH3CN:MeOH). After mixing by pipetting and centrifuging for 4 min at 6000 rpm, 0.5 μL of each supernatant was analyzed for drug using a fit-for-purpose liquid chromatography-tandem mass spectrometry (LC-MS/MS) method, with authentic samples of each analyte used for calibration and identification. Brain samples (weight 100 mg±1 mg) were dispersed in 500 μL, of internal standard solution (400 ng/mL in 4:1 v/v MeOH:water) using zirconium oxide beads (115 mg±5 mg) in The Bullet Blender® homogenizer for 30 s at speed 8. After homogenization, the samples were centrifuged for 4 min at 14,000 rpm and 0.5 μL of each supernatant was analyzed for drug using a fit-for-purpose LC-MS/MS method, with authentic samples of each analyte used for calibration and identification.
Data Analysis. The drug concentrations of samples below the lower limit of quantitation (LLOQ) were designated as zero. Pharmacokinetic data analysis was performed using noncompartmental, bolus injection or extravascular input analysis models in WinNonlin 5.2 (PharSight). Data points below LLOQ were presented as missing to improve validity of t112 calculations.

Another series has as its target T1, SERT (Homo sapiens, UniProt P31645).
T1 construct: expressed in transfected cells; host or cells: HEK293
Put plainly: SERT radioligand binding with [3H]imipramine. As to the method: (§1) Radioligand Binding. Affinity of the test compounds for SERT, NET, and DAT was determined in radioligand binding experiments with [^3H]imipramine, [^3]nisoxetine, and [^3H]WIN35,428, respectively, by WuXi AppTec (Hong Kong) Limited, under the conditions described in Table 15.

A short description of series [2]: RLM stability (Low Activity). The series is classed as in vitro ADME, Sprague Dawley rats. To be noted: male, Sprague Dawley, rat, liver microsomes, pH 7.4, Condition 1 (Low Activity), 0.50 mg protein/mL. The method in brief:
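Pooled male Sprague Dawley rat liver microsomes (0.50 mg/mL) in PBS pH 7.4 with 1 mM MgCl2 and 1 mM NADPH; compound 1 μM, 1.0% solvent, 37° C. Six time points over 60 min, parent remaining by LC-MS/MS; kel, t1/2 and Clint from linear regression of ln(AUC) versus time.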
On the technique in general: Liver microsomes are vesicles of endoplasmic reticulum, rich in cytochrome P450 enzymes.

Another series addresses T2, DAT (Homo sapiens, UniProt Q01959).
T2 construct: expressed in transfected cells; host or cells: CHO (uptake)
Put plainly: DAT radioligand binding with [3H]WIN35,428. As to the method: as §1

Setting [3] is: calculated based on brain exposure.
The mark [4] stands for this setting: brain, 10 mg/kg iv, read-out: t1/2 (iv).
Setting [5] is: brain, 10 mg/kg po, read-out: t1/2 (po).
Where [6] appears, read: plasma, 10 mg/kg iv, read-out: AUC0-inf (iv) (converted).
The mark [7] stands for this setting: plasma, 10 mg/kg iv, read-out: t1/2 (iv).
[8] abbreviates: plasma, 10 mg/kg po, read-out: AUC0-inf (po) (converted).
Setting [9] is: plasma, 10 mg/kg po, read-out: t1/2 (po).
Where [10] appears, read: plasma, absolute oral bioavailability.

T1 sequence (P31645 whole entry, species assumed): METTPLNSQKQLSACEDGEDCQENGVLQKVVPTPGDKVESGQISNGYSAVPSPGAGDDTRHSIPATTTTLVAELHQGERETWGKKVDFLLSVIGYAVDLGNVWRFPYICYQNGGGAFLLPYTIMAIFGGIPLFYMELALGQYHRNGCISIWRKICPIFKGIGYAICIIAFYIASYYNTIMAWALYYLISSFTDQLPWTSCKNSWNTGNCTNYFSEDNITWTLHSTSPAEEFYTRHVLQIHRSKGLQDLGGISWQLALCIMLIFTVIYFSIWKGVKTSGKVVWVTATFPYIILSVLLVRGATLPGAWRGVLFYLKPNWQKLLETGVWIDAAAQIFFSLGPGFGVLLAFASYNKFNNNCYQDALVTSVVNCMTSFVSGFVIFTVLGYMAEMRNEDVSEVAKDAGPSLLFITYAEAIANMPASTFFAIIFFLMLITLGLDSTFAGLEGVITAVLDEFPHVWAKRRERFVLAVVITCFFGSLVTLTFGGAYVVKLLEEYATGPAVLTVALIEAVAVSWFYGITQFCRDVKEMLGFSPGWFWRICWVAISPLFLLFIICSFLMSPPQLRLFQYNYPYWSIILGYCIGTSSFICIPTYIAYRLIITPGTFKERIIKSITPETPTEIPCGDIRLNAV
T2 sequence (Q01959 whole entry, species assumed): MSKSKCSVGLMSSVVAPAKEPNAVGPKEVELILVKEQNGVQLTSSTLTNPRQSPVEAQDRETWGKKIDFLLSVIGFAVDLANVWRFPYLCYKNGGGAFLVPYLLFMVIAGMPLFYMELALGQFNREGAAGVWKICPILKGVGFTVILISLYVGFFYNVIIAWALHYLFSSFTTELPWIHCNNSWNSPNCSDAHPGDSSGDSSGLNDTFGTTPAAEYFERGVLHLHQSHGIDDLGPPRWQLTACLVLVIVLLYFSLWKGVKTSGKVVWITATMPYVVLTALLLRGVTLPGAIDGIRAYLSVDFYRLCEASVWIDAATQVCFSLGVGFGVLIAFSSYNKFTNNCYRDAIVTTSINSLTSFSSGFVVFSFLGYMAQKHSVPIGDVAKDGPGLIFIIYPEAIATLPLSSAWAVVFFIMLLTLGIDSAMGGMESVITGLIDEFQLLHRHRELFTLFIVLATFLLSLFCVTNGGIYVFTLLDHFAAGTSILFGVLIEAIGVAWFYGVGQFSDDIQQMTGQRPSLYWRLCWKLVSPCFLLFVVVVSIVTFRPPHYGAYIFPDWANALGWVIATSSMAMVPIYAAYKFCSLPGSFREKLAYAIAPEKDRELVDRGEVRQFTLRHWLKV

As to `CNC1(c2ccccc2)CCCCC1=O` (racemic) [Compound 14rac, 2-(methylamino)-2-phenylcyclohexan-1-one hydrochloride], the “immobility time in FST” value with mice (forced swim test) (hydrochloride) is listed as “reduced time immobile; also recorded: induced antidepressant-like effects”. Besides, the “AUC0-inf (iv)” value in series [1] (brain, 10 mg/kg iv) is on record as 457,000 ng*min/g. Besides, in series [1] (brain, 10 mg/kg po), the “AUC0-inf (po)” value is reported as 192,000 ng*min/g. The results for the F in series [1] (setting [3]) and in series [1] (setting [10]) were 42% and 48%, respectively. For the same compound, the half-life in series [1] (setting [4]) amounted to 28.1 min; in series [1] (setting [5]), 39.4 min; in series [1] (setting [7]), 33.7 min; in series [1] (setting [9]), 42.3 min. Further, the Cmax came out at 3150 ng/g in series [1] (brain, 10 mg/kg po) and 930 ng/mL in series [1] (plasma, 10 mg/kg po). Also, the AUC(0-inf) in series [1] (setting [6]) was 1930 ng·h/mL; in series [1] (setting [8]), 920 ng·h/mL.

As for `O=C1CCCCC1(c1ccccc1)N1CCCC1` (racemic) [Compound 27rac, 2-phenyl-2-(pyrrolidin-1-yl)cyclohexan-1-one], the pKi on SERT was 6.96; at DAT it was 4.26. In series [2], this compound returned a half-life at 1 μM of 35.4 min. In series [2], this compound registered a microsomal CLint at 1 μM of 39.1 µL/min/mg.

Consider `CNC1(c2ccccc2Cl)CCCCC1=O` (racemic) [rac-ketamine, racemic ketamine, reference compound], for which the “immobility time in FST” value in the series on mice (forced swim test) was “did not have effects”. The “AUC0-inf (iv)” value in series [1] (brain, 10 mg/kg iv) is 97,000 ng*min/g. Besides, the “AUC0-inf (po)” value in series [1] (brain, 10 mg/kg po) is recorded as 6,030 ng*min/g. The F in series [1] (setting [3]) is on record as 6.2%; in series [1] (setting [10]), 15%.

In the case of `CN[C@@]1(c2ccccc2)CCCCC1=O` [Compound 14R, (R)-2-(methylamino)-2-phenylcyclohexan-1-one], on SERT, the negative-log Ki (pKi) is 4.40. For the same compound, the “AUC0-inf (iv)” value in series [1] (brain, 10 mg/kg iv) was 548,000 ng*min/g. Besides, in series [1] (brain, 10 mg/kg po), the “AUC0-inf (po)” value is 192,000 ng*min/g. In addition, the F in series [1] (setting [3]) is reported as 35%; in series [1] (setting [10]), 40%. Besides, the half-life in series [1] (setting [4]) turned out to be 716 min; in series [1] (setting [5]), 44.1 min; in series [1] (setting [7]) it was 70.5 min; in series [1] (setting [9]) it was 55.3 min. The Cmax in series [1] (brain, 10 mg/kg po) came out at 3640 ng/g; in series [1] (plasma, 10 mg/kg po), 1700 ng/mL. The AUC(0-inf) is 3520 ng·h/mL in series [1] (setting [6]) and 1410 ng·h/mL in series [1] (setting [8]).

At SERT, `CN[C@]1(c2ccccc2)CCCCC1=O` [Compound 14S, (S)-2-(methylamino)-2-phenylcyclohexan-1-one] gave a pKi of 4.35. In addition, in series [1] (brain, 10 mg/kg iv), the “AUC0-inf (iv)” value was 507,000 ng*min/g. Further, the “AUC0-inf (po)” value in series [1] (brain, 10 mg/kg po) is on record as 166,000 ng*min/g. Besides, the F is on record as 33% in series [1] (setting [3]) and 45.5% in series [1] (setting [10]). The half-life was determined as 127 min in series [1] (setting [4]), 104 min in series [1] (setting [5]), 142 min in series [1] (setting [7]) and 176 min in series [1] (setting [9]). Further, the maximum concentration (Cmax) came out at 3480 ng/g in series [1] (brain, 10 mg/kg po) and 951 ng/mL in series [1] (plasma, 10 mg/kg po). The results for the AUC(0-inf) in series [1] (setting [6]) and in series [1] (setting [8]) were 2180 ng·h/mL and 993 ng·h/mL, respectively.

As to `O=C1CCCC[C@]1(c1ccccc1)N1CCC1` [Compound 84R, (R)-2-(azetidin-1-yl)-2-phenyl-cyclohexan-1-one], the values for the pKi at SERT and on DAT were 6.22 and less than 4.02, respectively.

Take `O=C1CCCC[C@@]1(c1ccccc1)N1CCC1` [Compound 84S, (S)-2-(azetidin-1-yl)-2-phenyl-cyclohexan-1-one]: the pKi at SERT is 6.14; on DAT, 4.04.

In series [2], `Cc1ccccc1[C@]1(N)CCCCC1=O` [Compound 114R, (R)-2-amino-2-(o-tolyl)cyclohexan-1-one] showed a half-life at 1 μM of 27.6 min and a microsomal CLint at 1 μM of 50.3 µL/min/mg.

In series [2], `Cc1ccccc1[C@@]1(N)CCCCC1=O` [Compound 114S, (S)-2-amino-2-(o-tolyl)cyclohexan-1-one] gave a half-life at 1 μM of 25.4 min and an intrinsic metabolic clearance (microsomal CLint) at 1 μM of 54.5 µL/min/mg.

A word on the Cmax: it is the maximum level reached in the sampled fluid or tissue. Usually pKi stands for −log10 of the Ki, conventionally taken in molar units. Broadly, the microsomal CLint is the rate of metabolic loss divided by the concentration.

Values taken from patent US11344510B2, “Arylcyclohexylamine derivatives and their use in the treatment of psychiatric disorders” (Gilgamesh Pharmaceuticals, Inc., priority 2019, dated 2022).
